Laboratory results from US20230048132A1, “CYCLIN-DEPENDENT KINASE INHIBITORS” (SPV THERAPEUTICS INC., priority 2018, published 2023).
pIC50: −log10 of the molar value.

Experiments:
CDK2-CYCLINA = biological target: T1, CDK2-CYCLINA (Homo sapiens, UniProt P24941); assay: CDK inhibition assay (microfluidic LabChip, IC50 format); format: biochemical; conditions: Table 4a; read-out: CDK2 CyclinA IC50
T1 construct: purchased Millipore

GXA MKN45 = assay: 2D cell proliferation assay (CellTiter-Blue); format: cell-based; conditions: Homo sapiens, MKN-45, 72 h, three days of treatment, read-out: abs. IC50
In short: (§1)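 Fluorescence from CellTiter-Blue reduction served as the viability signal after cells had been treated for three days with up to 100 μM compound (five log-spaced doses). Values are IC50 from a four-parameter curve fit of treated/control signal.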

LYXFNH U-937 = assay: 2D cell proliferation assay (CellTiter-Blue); format: cell-based; conditions: Homo sapiens, 72 h, three days of treatment, read-out: abs. IC50
In short: as §1

LIXFH Hep G2 = assay: 2D cell proliferation assay (CellTiter-Blue); format: cell-based; conditions: Homo sapiens, HepG2, 72 h, three days of treatment, read-out: abs. IC50
In short: as §1

MAXFLB T47D (ER+) = assay: 2D cell proliferation assay (CellTiter-Blue); format: cell-based; conditions: Homo sapiens, 72 h, three days of treatment, read-out: abs. IC50
In short: as §1

CXF Caco-2 = assay: 2D cell proliferation assay (CellTiter-Blue); format: cell-based; conditions: Homo sapiens, 72 h, three days of treatment, read-out: abs. IC50
In short: as §1

LXFE Calu-1 = assay: 2D cell proliferation assay (CellTiter-Blue); format: cell-based; conditions: Homo sapiens, 72 h, three days of treatment, read-out: abs. IC50
In short: as §1

MAXFLB MCF7 (ER+) = assay: 2D cell proliferation assay (CellTiter-Blue); format: cell-based; conditions: Homo sapiens, 72 h, three days of treatment, read-out: abs. IC50
In short: (§2)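 Exponential-phase cells plated, 24 h recovery; compound added at five concentrations in full-log steps (top 100 μM), duplicate; incubated 3 days, 37° C; CellTiter-Blue added, fluorescence measured; signal expressed as T/C% of untreated control and fitted (4-parameter) for IC50.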

OVXF SK-OV-3 = assay: 2D cell proliferation assay (CellTiter-Blue); format: cell-based; conditions: Homo sapiens, 72 h, three days of treatment, read-out: abs. IC50
In short: as §1

PAXF MIA-Pa-Ca-2 = assay: 2D cell proliferation assay (CellTiter-Blue); format: cell-based; conditions: Homo sapiens, MIA PaCa-2, 72 h, three days of treatment, read-out: abs. IC50
In short: as §1

LXFA A549 = assay: 2D cell proliferation assay (CellTiter-Blue); format: cell-based; conditions: Homo sapiens, 72 h, three days of treatment, read-out: abs. IC50
In short: as §2

PAXF BxPC-3 = assay: 2D cell proliferation assay (CellTiter-Blue); format: cell-based; conditions: Homo sapiens, 72 h, three days of treatment, read-out: abs. IC50
In short: as §1

LXFA NCl-H1975 = assay: 2D cell proliferation assay (CellTiter-Blue); format: cell-based; conditions: 72 h, three days of treatment, read-out: abs. IC50
In short: as §1

CNXF U-87 MG = assay: 2D cell proliferation assay (CellTiter-Blue); format: cell-based; conditions: Homo sapiens, 72 h, three days of treatment, read-out: abs. IC50
In short: as §1

MAXFHER BT-474 = assay: 2D cell proliferation assay (CellTiter-Blue); format: cell-based; conditions: Homo sapiens, 72 h, three days of treatment, read-out: abs. IC50
In short: as §1

MEXF WM-266-4 = assay: 2D cell proliferation assay (CellTiter-Blue); format: cell-based; conditions: Homo sapiens, 72 h, three days of treatment, read-out: abs. IC50
In short: as §1

MAXFTN MDA-MB-231 (ER−) = assay: 2D cell proliferation assay (CellTiter-Blue); format: cell-based; conditions: Homo sapiens, 72 h, three days of treatment, read-out: abs. IC50
In short: as §1

LXFL NCl-H460 = assay: 2D cell proliferation assay (CellTiter-Blue); format: cell-based; conditions: 72 h, three days of treatment, read-out: abs. IC50
In short: as §1

LEXFCM K-562 = assay: 2D cell proliferation assay (CellTiter-Blue); format: cell-based; conditions: Homo sapiens, K562, 72 h, three days of treatment, read-out: abs. IC50
In short: as §1

all cell lines tested = assay: 2D cell proliferation assay, geometric mean over the cell line panel; format: cell-based; conditions: Table 5 upper part; geometric mean over the 47-line panel; read-out: Geomean abs. IC50 value
In short: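 Cells plated at 4,000-60,000/well, 24 h recovery, then five full-log concentrations up to 100 μM in duplicate for three days at 37 °C. CellTiter-Blue fluorescence (ex 570/em 600 nm); 4-parameter fits give relative IC50, absolute IC50/IC70; geometric mean across lines, unresolved values set to tested range limits.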

CDK9-CYCLINT1 = biological target: T2, CDK9-CYCLINT1 (Homo sapiens, UniProt P50750); assay: CDK inhibition assay (microfluidic LabChip, IC50 format); format: biochemical; conditions: Table 4a; read-out: CDK9 CyclinT1 IC50
T2 construct: purchased Carna
T2 sequence (P50750 whole entry): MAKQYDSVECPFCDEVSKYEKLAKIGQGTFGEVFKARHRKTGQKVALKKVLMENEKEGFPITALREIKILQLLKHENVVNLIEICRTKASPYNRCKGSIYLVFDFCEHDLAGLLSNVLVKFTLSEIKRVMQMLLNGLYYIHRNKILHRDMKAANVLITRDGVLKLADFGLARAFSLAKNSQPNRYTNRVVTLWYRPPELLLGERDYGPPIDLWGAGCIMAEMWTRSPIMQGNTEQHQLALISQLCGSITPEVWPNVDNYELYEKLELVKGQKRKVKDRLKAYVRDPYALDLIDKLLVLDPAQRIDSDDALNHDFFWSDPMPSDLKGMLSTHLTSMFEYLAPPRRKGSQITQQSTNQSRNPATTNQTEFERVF
T2 sequence (O60563 whole entry partner): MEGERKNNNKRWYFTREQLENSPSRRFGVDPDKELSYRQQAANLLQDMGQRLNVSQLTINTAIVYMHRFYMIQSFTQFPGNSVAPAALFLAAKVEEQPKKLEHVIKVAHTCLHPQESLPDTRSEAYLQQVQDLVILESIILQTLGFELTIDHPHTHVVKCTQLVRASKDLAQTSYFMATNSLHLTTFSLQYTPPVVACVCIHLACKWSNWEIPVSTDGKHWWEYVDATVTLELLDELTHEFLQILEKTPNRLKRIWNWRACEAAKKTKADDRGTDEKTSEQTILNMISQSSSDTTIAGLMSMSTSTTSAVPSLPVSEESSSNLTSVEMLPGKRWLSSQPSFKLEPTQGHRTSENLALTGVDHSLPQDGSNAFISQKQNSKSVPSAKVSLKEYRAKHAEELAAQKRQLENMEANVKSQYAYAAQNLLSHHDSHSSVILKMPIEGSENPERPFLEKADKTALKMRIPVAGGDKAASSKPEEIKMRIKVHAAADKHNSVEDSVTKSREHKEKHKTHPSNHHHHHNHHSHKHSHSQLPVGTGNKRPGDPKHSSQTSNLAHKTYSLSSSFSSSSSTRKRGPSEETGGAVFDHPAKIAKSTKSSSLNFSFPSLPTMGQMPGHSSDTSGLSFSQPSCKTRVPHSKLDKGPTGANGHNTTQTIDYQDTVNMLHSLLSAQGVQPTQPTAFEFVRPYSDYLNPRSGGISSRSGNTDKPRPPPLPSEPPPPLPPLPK

CDK7 CyclinH = CDK7 CyclinH (Homo sapiens, UniProt P50613); assay: as above; format: biochemical; conditions: Table 4a
Chain of CDK7 CyclinH (P50613 whole entry): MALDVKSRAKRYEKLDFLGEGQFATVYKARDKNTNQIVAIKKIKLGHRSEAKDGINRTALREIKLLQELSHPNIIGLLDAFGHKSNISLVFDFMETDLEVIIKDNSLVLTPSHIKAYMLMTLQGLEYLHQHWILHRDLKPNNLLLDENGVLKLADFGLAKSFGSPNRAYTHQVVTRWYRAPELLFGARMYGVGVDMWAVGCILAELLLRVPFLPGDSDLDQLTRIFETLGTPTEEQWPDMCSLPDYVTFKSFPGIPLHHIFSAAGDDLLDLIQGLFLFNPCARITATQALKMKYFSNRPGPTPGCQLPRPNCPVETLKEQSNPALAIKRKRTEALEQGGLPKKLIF
Chain of CDK7 CyclinH (P51946 whole entry partner): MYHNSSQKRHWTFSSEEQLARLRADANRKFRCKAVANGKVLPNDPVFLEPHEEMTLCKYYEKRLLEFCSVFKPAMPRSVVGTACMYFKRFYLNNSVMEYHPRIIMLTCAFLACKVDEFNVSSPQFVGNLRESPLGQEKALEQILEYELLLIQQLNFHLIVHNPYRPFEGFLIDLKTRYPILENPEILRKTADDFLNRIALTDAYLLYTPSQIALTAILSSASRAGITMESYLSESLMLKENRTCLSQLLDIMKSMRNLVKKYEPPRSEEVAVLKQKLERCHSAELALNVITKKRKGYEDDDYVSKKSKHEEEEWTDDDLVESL
Chain of CDK7 CyclinH (P51948 whole entry partner): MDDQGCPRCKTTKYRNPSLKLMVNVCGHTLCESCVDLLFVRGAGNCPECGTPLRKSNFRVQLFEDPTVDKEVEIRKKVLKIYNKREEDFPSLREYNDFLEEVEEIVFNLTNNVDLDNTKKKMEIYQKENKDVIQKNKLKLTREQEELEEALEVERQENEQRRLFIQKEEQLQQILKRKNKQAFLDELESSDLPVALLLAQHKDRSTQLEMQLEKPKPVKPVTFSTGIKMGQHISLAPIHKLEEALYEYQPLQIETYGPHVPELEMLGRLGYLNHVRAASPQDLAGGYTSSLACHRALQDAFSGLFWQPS

CDK4-CYCLIND1 = CDK4-CYCLIND1 (Homo sapiens, UniProt P11802); assay: as above; conditions: CDK4 CyclinD1 IC50, Table 4a; a second value in parentheses for some compounds
Chain of CDK4-CYCLIND1 (P11802 whole entry): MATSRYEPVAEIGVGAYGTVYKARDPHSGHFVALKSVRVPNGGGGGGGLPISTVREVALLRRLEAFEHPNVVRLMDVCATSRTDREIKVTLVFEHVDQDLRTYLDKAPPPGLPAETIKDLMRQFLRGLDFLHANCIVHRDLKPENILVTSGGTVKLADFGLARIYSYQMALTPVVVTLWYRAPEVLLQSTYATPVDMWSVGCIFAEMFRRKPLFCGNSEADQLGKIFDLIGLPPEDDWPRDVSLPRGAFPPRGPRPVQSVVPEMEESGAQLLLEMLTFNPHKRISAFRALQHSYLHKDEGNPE
Chain of CDK4-CYCLIND1 (P24385 whole entry partner): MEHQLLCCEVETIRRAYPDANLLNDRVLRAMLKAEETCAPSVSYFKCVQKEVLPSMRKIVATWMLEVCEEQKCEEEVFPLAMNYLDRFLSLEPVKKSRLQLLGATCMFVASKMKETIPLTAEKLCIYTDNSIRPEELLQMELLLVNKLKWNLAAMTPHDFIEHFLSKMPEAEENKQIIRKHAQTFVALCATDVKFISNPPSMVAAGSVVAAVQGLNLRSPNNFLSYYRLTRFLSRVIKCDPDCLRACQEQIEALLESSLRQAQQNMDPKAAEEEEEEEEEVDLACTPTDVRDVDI

CDK6-CYCLIND3 = biological target: T3, CDK6-CYCLIND3 (Homo sapiens, UniProt Q00534); assay: as above; format: biochemical; conditions: Table 4a; read-out: CDK6 CyclinD3 IC50
T3 construct: purchased Carna
T3 sequence (Q00534 whole entry): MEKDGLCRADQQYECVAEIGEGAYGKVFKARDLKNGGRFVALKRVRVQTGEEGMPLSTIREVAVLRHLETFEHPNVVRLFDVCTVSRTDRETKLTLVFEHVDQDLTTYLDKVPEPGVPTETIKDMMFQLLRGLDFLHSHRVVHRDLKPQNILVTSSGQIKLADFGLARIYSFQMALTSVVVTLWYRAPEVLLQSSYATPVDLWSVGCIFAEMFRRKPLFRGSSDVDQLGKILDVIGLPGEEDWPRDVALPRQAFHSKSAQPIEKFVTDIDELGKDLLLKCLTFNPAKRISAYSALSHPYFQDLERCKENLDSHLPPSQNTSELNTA
T3 sequence (P30281 whole entry partner): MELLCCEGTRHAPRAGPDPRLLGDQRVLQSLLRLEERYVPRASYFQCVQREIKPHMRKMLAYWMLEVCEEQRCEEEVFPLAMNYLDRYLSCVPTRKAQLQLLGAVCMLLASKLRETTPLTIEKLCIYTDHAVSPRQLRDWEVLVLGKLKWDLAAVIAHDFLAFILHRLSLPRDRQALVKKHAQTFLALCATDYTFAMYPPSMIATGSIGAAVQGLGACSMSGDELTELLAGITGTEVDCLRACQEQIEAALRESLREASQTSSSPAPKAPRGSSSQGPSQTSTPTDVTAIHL

SMILES	pIC50 (CDK2-CYCLINA)	pIC50 (GXA MKN45)	pIC50 (LYXFNH U-937)	pIC50 (LIXFH Hep G2)	pIC50 (MAXFLB T47D (ER+))	pIC50 (CXF Caco-2)	pIC50 (LXFE Calu-1)	pIC50 (MAXFLB MCF7 (ER+))	pIC50 (OVXF SK-OV-3)	pIC50 (PAXF MIA-Pa-Ca-2)	pIC50 (LXFA A549)	pIC50 (PAXF BxPC-3)	pIC50 (LXFA NCl-H1975)	pIC50 (CNXF U-87 MG)	pIC50 (MAXFHER BT-474)	pIC50 (MEXF WM-266-4)	pIC50 (MAXFTN MDA-MB-231 (ER−))	pIC50 (LXFL NCl-H460)	pIC50 (LEXFCM K-562)	pIC50 (all cell lines tested)	other results
O=C1NCC[C@@]12Cc1cnc(Nc3ccc(N4CCNCC4)cc3F)nc1N(C1CCCC1)C2=O [Example D146, (S)-8-cyclopentyl-2-((2-fluoro-4-(piperazin-1-yl)phenyl)amino)-5,8-dihydro-7H-spiro[pyrido[2,3-d]pyrimidine-6,3′-pyrrolidine]-2′,7-dione]	6.56	5.51	≥ 8.00	6.47	5.79	4.64	5.22	5.98	5.08	5.20	5.47	6.12	6.45	4.97	5.26	5.21	6.15	5.67	5.31	5.91	pIC50 (CDK9-CYCLINT1): 7.61; pIC50 (CDK7 CyclinH): 5.95; pIC50 (CDK4-CYCLIND1): 8.38; pIC50 (CDK6-CYCLIND3): 8.09
CC(C)N1CCN(c2ccc(Nc3ncc4c(n3)N(C3CCCC3)C(=O)[C@]3(CCNC3=O)C4)nc2)CC1 [Example D154, (S)-8-cyclopentyl-2-((5-(4-isopropylpiperazin-1-yl)pyridin-2-yl)amino)-5,8-dihydro-7H-spiro[pyrido[2,3-d]pyrimidine-6,3′-pyrrolidine]-2′,7-dione]	5.67	4.32	≥ 8.00	5.09	4.01	≤ 4.00	4.31	4.53	4.22	4.13	4.10	5.54	4.58	≤ 4.00	4.09	4.09	5.31	4.45	4.07	4.77	pIC50 (CDK9-CYCLINT1): 6.79; pIC50 (CDK7 CyclinH): 4.87; pIC50 (CDK4-CYCLIND1): 8.69; pIC50 (CDK6-CYCLIND3): 8.63
CN(C)[C@H]1CCN(c2ccc(Nc3ncc4c(n3)N(C3CCCC3)C(=O)[C@]3(CCNC3=O)C4)nc2)C1 [Example D178, (S)-8-cyclopentyl-2-((5-((S)-3-(dimethylamino)pyrrolidin-1-yl)pyridin-2-yl)amino)-5,8-dihydro-7H-spiro[pyrido[2,3-d]pyrimidine-6,3′-pyrrolidine]-2′,7-dione]	6.90	4.32	≥ 8.00	5.27	4.34	≤ 4.00	4.10	4.49	4.11	4.18	4.16	4.92	4.78	4.12	4.17	4.13	5.61	4.20	4.12	4.78	pIC50 (CDK9-CYCLINT1): 8.37; pIC50 (CDK7 CyclinH): 5.95; pIC50 (CDK4-CYCLIND1): 8.99; pIC50 (CDK6-CYCLIND3): 8.73
CN(C)CCOc1ccc(Nc2ncc3c(n2)N(C2CCCC2)C(=O)[C@]2(CCNC2=O)C3)cc1 [Example D179, (S)-8-cyclopentyl-2-((4-(2-(dimethylamino)ethoxy)phenyl)amino)-5,8-dihydro-7H-spiro[pyrido[2,3-d]pyrimidine-6,3′-pyrrolidine]-2′,7-dione]	7.17	6.95	≥ 8.00	7.43	6.08	≤ 4.00	5.90	7.24	6.11	6.79	5.48	6.94	7.54	≤ 4.00	6.90	6.57	7.28	6.56	6.45	6.69	pIC50 (CDK9-CYCLINT1): 8.73; pIC50 (CDK7 CyclinH): 6.49; pIC50 (CDK4-CYCLIND1): 8.90; pIC50 (CDK6-CYCLIND3): 8.67
